# Measurements: PMC7428016, “Influence of ligand’s directional configuration, chrysenes as model compounds, on the binding activity with aryl hydrocarbon receptor” (Scientific Reports, 2020)
# Molecular target: T1, AhR (Rattus norvegicus, UniProt P41738)
# T1 sequence (P41738 10-853): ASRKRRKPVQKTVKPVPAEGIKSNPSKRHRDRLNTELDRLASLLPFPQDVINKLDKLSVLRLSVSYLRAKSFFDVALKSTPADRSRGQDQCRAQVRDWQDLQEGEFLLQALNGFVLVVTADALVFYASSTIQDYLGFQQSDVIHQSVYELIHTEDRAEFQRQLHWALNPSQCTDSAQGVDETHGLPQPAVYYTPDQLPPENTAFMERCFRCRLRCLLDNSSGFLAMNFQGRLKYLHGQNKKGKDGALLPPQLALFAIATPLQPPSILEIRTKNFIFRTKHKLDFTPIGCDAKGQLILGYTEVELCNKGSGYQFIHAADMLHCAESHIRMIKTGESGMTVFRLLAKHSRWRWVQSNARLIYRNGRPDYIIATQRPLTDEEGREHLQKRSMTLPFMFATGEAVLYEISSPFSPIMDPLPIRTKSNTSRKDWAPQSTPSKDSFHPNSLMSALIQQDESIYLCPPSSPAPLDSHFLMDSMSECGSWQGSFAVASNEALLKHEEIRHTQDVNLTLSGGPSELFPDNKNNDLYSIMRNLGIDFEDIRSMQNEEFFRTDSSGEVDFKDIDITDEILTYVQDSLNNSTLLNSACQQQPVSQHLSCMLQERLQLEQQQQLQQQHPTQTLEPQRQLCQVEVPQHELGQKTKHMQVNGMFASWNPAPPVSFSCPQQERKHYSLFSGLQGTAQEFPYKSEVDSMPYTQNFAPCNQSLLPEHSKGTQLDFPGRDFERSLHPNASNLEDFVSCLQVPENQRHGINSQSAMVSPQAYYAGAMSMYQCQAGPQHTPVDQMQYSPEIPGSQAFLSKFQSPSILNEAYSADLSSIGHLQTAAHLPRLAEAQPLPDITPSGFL
# Assay: H4IIE-luc transactivation bioassay (AhR-mediated potency)
# Conditions: not given
# Source text: H4IIE cell line derived from rat hepatoma has been reported to continuously express cytochrome P450 protein/mRNA. For this study, H4IIE cells transfected with the luciferase (Luc) reporter gene plasmid (pGudLuc1.1) were used, originally obtained from Jac Aarts, University of Wageningen, The Netherlands and further developed by John Giesy, University of Saskatchewan[44],[45]. Upon ligand binding, AhR in H4IIE-luc is activated and translocated to the nucleus, where heat shock proteins are dissociated from the complex and they form a dimer with the AhR nuclear translocator (ARNT) protein. This complex binds to specific DNA sequences with high affinity, the dioxin-responsive element (DRE). The binding to the DRE results in DNA bending transcriptional activation of adjacent responsive genes.
# Acute toxic potencies of chrysene homologues were determined based on an AhR-mediated activity using H4IIE-luc cells, by the method previously reported. […] After the exposure, the activity results were expressed as relative luminescence units that were quantified using a Victor X3 multi label plate reader (PerkinElmer, Waltham, MA). Benzo[a]pyrene was used as a positive control ligand. We converted responses of the H4IIE-luc bioassay to the percentages of the maximum response (%BaPmax) observed for a 50 nM BaP (= 100%BaPmax). All bioassays were repeated four times in triplicate (Table S4 for detail information of in vitro bioassay conditions). […] Estimations of EC50 values of target compounds from the dose–response relationships were basically assumed equal efficacy and parallelism between target compounds and reference compound (benzo[a]pyrene).
# Table S4. In vitro transactivation bioassay conditions for evaluating toxicities of chemical compounds.
row,SMILES,EC50
1,Oc1cccc2c1ccc1c3ccccc3ccc21 [1-hydroxychrysene],87 µM
2,Cc1ccc2c(ccc3c4ccccc4ccc23)c1 [2-methylchrysene],0.66 µM
3,"c1ccc2c(c1)cc1ccc3c4ccccc4cc4ccc2c1c43 [Dibenzo[b,def]chrysene]",14 µM
4,"c1ccc2c(c1)cc1ccc3cccc4c5ccccc5c2c1c34 [Dibenzo[def,p]chrysene]",76 µM
5,c1ccc2cc3c(ccc4c5ccccc5ccc34)cc2c1 [Benzo[b]chrysene],2.8 µM
6,Oc1ccc2ccc3c4ccccc4ccc3c2c1 [3-hydroxychrysene],140 µM
7,c1ccc2c(c1)ccc1c3ccccc3ccc21 [Chrysene],7.2 µM
8,c1ccc2c(c1)ccc1c2ccc2ccc3ccccc3c21 [Benzo[c]chrysene],1.3 µM
9,c1ccc2c(c1)ccc1c2ccc2c3ccccc3ccc21 [Benzo[a]chrysene],20 µM
10,Oc1ccc2c(ccc3c4ccccc4ccc23)c1 [2-hydroxychrysene],59 µM
11,Cc1cccc2c1ccc1c3ccccc3ccc21 [1-methylchrysene],1.9 µM
12,Cc1ccc2ccc3c4ccccc4ccc3c2c1 [3-methylchrysene],1.1 µM

# Test system: not given
# Assay: not given
# Conditions: Table S1, not marked as estimated; cited from earlier work
row,SMILES,Log Kow
1,"c1ccc2c(c1)cc1ccc3c4ccccc4cc4ccc2c1c43 [Dibenzo[b,def]chrysene]",7.28
2,"c1ccc2c(c1)cc1ccc3cccc4c5ccccc5c2c1c34 [Dibenzo[def,p]chrysene]",7.71
3,c1ccc2cc3c(ccc4c5ccccc5ccc34)cc2c1 [Benzo[b]chrysene],7.11
4,c1ccc2c(c1)ccc1c3ccccc3ccc21 [Chrysene],5.81
5,c1ccc2c(c1)ccc1c2ccc2ccc3ccccc3c21 [Benzo[c]chrysene],7.11
6,c1ccc2c(c1)ccc1c2ccc2c3ccccc3ccc21 [Benzo[a]chrysene],7.11
